According to patent US7572765B2, “Conformationally constrained parathyroid hormone (PTH) analogs” (The General Hospital Corporation, priority 2001, dated 2009):
Square brackets hold non-standard residues; d marks the D form. Peptide text beside a SMILES is read from it. hArg = N=C(N)NCCCC[C@H](N)C(=O)O; Aib = CC(C)(N)C(=O)O

How the values were obtained:
[1] = biological target: T1, P1R-delNt, truncated human P1R deleted for residues (24-181) (Homo sapiens, UniProt Q03431); test: Competition binding in COS-7 cells expressing hP1R-delNt; conditions: for Binding IC50 / IC50: COS-7 cells, hP1R-delNT, tracer 125I-[Aib^1,3,M]PTH(1-21), N.B. = no inhibition of tracer binding
T1 construct: expressed in transfected cells; host or cells: COS-7 (transient, FuGENE 6)
T1 sequence (Q03431 with tags, fused parts or gaps limits assumed): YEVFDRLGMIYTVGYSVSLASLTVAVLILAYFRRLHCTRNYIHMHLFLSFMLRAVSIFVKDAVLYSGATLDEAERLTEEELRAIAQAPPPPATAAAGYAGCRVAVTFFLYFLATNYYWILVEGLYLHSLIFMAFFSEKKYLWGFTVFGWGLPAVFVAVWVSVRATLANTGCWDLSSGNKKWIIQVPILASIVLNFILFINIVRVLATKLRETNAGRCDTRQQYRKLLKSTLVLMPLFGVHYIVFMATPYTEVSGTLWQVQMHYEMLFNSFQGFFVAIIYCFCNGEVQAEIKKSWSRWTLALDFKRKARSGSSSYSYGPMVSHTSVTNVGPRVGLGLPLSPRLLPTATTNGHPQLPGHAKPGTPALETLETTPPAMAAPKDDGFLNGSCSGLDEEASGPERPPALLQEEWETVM

[2] = Circular dichroism spectroscopy (helical content); format: physicochemical; conditions: for [0]222obs × 10^−3, Phos. / [0]222obs × 10^−3, Phos + TFE: 20 μM peptide; for [0]222obs × 10^−3, Phos.: 50 mM phosphate buffer pH 7.4; for [0]222obs × 10^−3, Phos + TFE / helical residues (%), Phos + TFE: 50 mM phosphate buffer with trifluoroethanol (20%); for helical residues (%), Phos + TFE / helical residues (%), Phos.: from elipticity at 222 nM; for helical residues (%), Phos.: 50 mM phosphate buffer
Protocol: Circular Dichroism. Circular Dichroism spectra were recorded on a Jasco model 710 spectropolarimeter; peptides were analyzed at a concentration of20 μM in 50 mM sodium phosphate buffer pH 7.4, or the same buffer containing 2,2,2-trifluoroethanol at 20% (v/v). Spectroscopic scans were preformed at 20° C. and at wavelengths between […], with data recored at each 1 nM interval. The spectral bandwidth was 1.5 nM and 8 scans were accumulated and averaged for each sample. At each wavelength, the mean residue elipticity [θ×100/l×C×n); where θ is the raw elipticity value (in dimensions of millidegree), l is the sample path length, C=is the molar peptide concentration, and n is the number of residues in the peptide (Bowen, W. P., and Jerman, J. C., Trends in Pharmacol. Sci. 16: 413-417 (1995)). The helical content of each peptide was estimated by dividing [θ] observed at 222 nM for that peptide by −28,100, which is the reported [θ]222obs for a model helical decapeptide (Bowen, W. P., and Jerman, J. C., Trends in Pharmacol. Sci. 16: 413-417 (1995)).
Circular dichroism (CD) spectroscopy was used to analyze the potential effects that the Aib substitutions had on peptide secondary structure when the peptides were free in solution. Samples were analyzed in both aqueous phosphate buffer and in phosphate buffer containing 2,2,2-trifloroethanol, an organic solvent which promotes helical structure in oligopeptides, including PTH peptide fragments (Pellegrini, M., et al., J. Biol. Chem. 273:10420-10427 (1998); Gronwald, W., et al., Biol. Chem. Hoppe Seyler 377:175-186 (1996); Barden, J. A., and Kemp, B. E., Biochemistry 32:7126-7132 (1993)). In phosphate buffer, the helical content of each peptide, estimated from the elipticity observed at 222 nM, was small (≦16%); however, [Aib^1,3,M]PTH(1-14) contained nearly twice as much helix as did [M]PTH(1-14) (16% and 8.1% respectively), as did [Aib^1,3,M]PTH(1-1l), as compared to […] (13% and 7.5% respectively, Table 4). […] The higher helical contents of these two peptides were evident not only from the negative elipticities at […] and 222 nM, but also from the positive elipticities at 192 nM (FIG. 6).

| Molecule | Binding IC50 [1] | [0]222obs × 10^−3, Phos. [2] | [0]222obs × 10^−3, Phos + TFE [2] | helical residues (%), Phos + TFE [2] | helical residues (%), Phos + TFE ([2]; M]PTH(1-10)) | helical residues (%), Phos. [2] | IC50 [1] | binding affinity, fold stronger than [M]PTH(1-14) ([1]; P1R-delNt) | difference in affinity between [Aib^1,3,M]PTH(1-14) and [Aib^1,3,M]PTH(1-21) ([1]; P1R-delNt) | Binding IC50 ([1]; listed as native PTH(1-14)) |
| --- | --- | --- | --- | --- | --- | --- | --- | --- | --- | --- |
| CCCC[C@H](NC(=O)[C@H](CCCNC(=N)N)NC(=O)[C@H](CCC(=O)O)NC(=O)[C@@H](NC(=O)[C@H](CO)NC(=O)[C@H](C)NC(=O)[C@H](CC(C)C)NC(=O)[C@H](Cc1c[nH]cn1)NC(=O)[C@H](CCCCN)NC(=O)CNC(=O)[C@H](CC(C)C)NC(=O)[C@H](CC(N)=O)NC(=O)[C@H](Cc1c[nH]cn1)NC(=O)[C@H](CCCC)NC(=O)[C@H](CC(C)C)NC(=O)[C@H](CCC(N)=O)NC(=O)[C@@H](NC(=O)[C@H](CCC(=O)O)NC(=O)[C@H](CO)NC(=O)[C@@H](NC(=O)[C@H](C)N)C(C)C)[C@@H](C)CC)C(C)C)C(=O)N[C@@H](CCC(N)=O)C(=O)N[C@@H](Cc1c[nH]c2ccccc12)C(=O)N[C@@H](CC(C)C)C(=O)N[C@@H](CCCNC(=N)N)C(=O)N[C@@H](CCCCN)C(=O)N[C@@H](CCCCN)C(=O)N[C@@H](CC(C)C)C(=O)N[C@@H](CCC(N)=O)C(=O)N[C@@H](CC(=O)O)C(=O)N[C@H](C(=O)N[C@@H](Cc1c[nH]cn1)C(=O)N[C@@H](CC(N)=O)C(=O)N[C@@H](Cc1ccc(O)cc1)C(N)=O)C(C)C [PTH(1-34), [Nle^8,21, Tyr^34]PTH(1-34)amide, reference compound] | N.B. |  |  |  |  |  |  |  |  |  |
| CC[C@H](C)[C@H](NC(=O)[C@H](CCC(=O)O)NC(=O)C(C)(C)NC(=O)[C@@H](NC(=O)C(C)(C)N)C(C)C)C(=O)N[C@@H](CCC(N)=O)C(=O)N[C@@H](CC(C)C)C(=O)N[C@@H](CCSC)C(=O)N[C@@H](Cc1c[nH]cn1)C(=O)N[C@@H](CCC(N)=O)C(N)=O [[Aib^1,3,M]PTH(1-10), [Aib^1,3,Gln^10]PTH(1-10)] (H-[Aib]V[Aib]EIQLMHQ-NH2) | N.B. | −3.2 | −13.1 | approximately 47% | 47% | 11% |  |  |  |  |
| CC[C@H](C)[C@H](NC(=O)[C@H](CCC(=O)O)NC(=O)[C@H](C)NC(=O)[C@@H](NC(=O)[C@H](C)N)C(C)C)C(=O)N[C@@H](CCC(N)=O)C(=O)N[C@@H](CC(C)C)C(=O)N[C@@H](CCSC)C(=O)N[C@@H](Cc1c[nH]cn1)C(=O)N[C@@H](CCC(N)=O)C(=O)N[C@@H](CCCCNC(=N)N)C(=O)N[C@@H](C)C(=O)N[C@@H](CCCCN)C(=O)N[C@@H](Cc1c[nH]c2ccccc12)C(N)=O [[M]PTH(1-14), [Ala^3,12,Gln^10,Har^11,Trp^14]PTH(1-14)amide, reference compound] (H-AVAEIQLMHQ[hArg]AKW-NH2) |  | −2.3 | −11.9 | 42% |  | 8.1% |  |  |  |  |

Second part, the molecule after the results:

| Binding IC50 [1] | [0]222obs × 10^−3, Phos. [2] | [0]222obs × 10^−3, Phos + TFE [2] | helical residues (%), Phos + TFE [2] | helical residues (%), Phos + TFE ([2]; M]PTH(1-10)) | helical residues (%), Phos. [2] | IC50 [1] | binding affinity, fold stronger than [M]PTH(1-14) ([1]; P1R-delNt) | difference in affinity between [Aib^1,3,M]PTH(1-14) and [Aib^1,3,M]PTH(1-21) ([1]; P1R-delNt) | Binding IC50 ([1]; listed as native PTH(1-14)) | Molecule |
| --- | --- | --- | --- | --- | --- | --- | --- | --- | --- | --- |
|  | −3.7 | −16.1 | 57% |  | 13% | 13 µM |  |  |  | CC[C@H](C)[C@H](NC(=O)[C@H](CCC(=O)O)NC(=O)C(C)(C)NC(=O)[C@@H](NC(=O)C(C)(C)N)C(C)C)C(=O)N[C@@H](CCC(N)=O)C(=O)N[C@@H](CC(C)C)C(=O)N[C@@H](CCSC)C(=O)N[C@@H](Cc1c[nH]cn1)C(=O)N[C@@H](CCC(N)=O)C(=O)N[C@@H](CCCCNC(=N)N)C(N)=O [[Aib^1,3,M]PTH(1-11), AibValAibGluIleGlnLeuMetHisGlnHar] (H-[Aib]V[Aib]EIQLMHQ[hArg]-NH2) |
| effectively inhibited the binding | −4.6 | −15.7 | 56% |  | 16% | ~1.5 µM | ~10 fold | 50 fold |  | CC[C@H](C)[C@H](NC(=O)[C@H](CCC(=O)O)NC(=O)C(C)(C)NC(=O)[C@@H](NC(=O)C(C)(C)N)C(C)C)C(=O)N[C@@H](CCC(N)=O)C(=O)N[C@@H](CC(C)C)C(=O)N[C@@H](CCSC)C(=O)N[C@@H](Cc1c[nH]cn1)C(=O)N[C@@H](CCC(N)=O)C(=O)N[C@@H](CCCCNC(=N)N)C(=O)N[C@@H](C)C(=O)N[C@@H](CCCCN)C(=O)N[C@@H](Cc1c[nH]c2ccccc12)C(N)=O [[Aib^1,3,M]PTH(1-14), AibValAibGluIleGlnLeuMetHisGlnHarAlaLysTrp] (H-[Aib]V[Aib]EIQLMHQ[hArg]AKW-NH2) |
| N.B. | −2.6 | −10.6 | 38% |  | 9.1% |  |  |  | failed to inhibit tracer binding | H-AVSEIQLMHNLGKH-NH2 [PTH(1-14), reference compound] |
